# From patent US20060052451A1, “Method” (priority 2002, published 2006)
# Key:
# [1] = molecular target: T1, human PPAR-alpha ligand binding domain (Homo sapiens, UniProt Q07869); test: PPAR alpha ligand binding (displacement of DAUDA); conditions: for Kd: PPAR Receptor Binding Kd Alpha (apparent Kd), DAUDA displacement
# T1 sequence (Q07869 179-468): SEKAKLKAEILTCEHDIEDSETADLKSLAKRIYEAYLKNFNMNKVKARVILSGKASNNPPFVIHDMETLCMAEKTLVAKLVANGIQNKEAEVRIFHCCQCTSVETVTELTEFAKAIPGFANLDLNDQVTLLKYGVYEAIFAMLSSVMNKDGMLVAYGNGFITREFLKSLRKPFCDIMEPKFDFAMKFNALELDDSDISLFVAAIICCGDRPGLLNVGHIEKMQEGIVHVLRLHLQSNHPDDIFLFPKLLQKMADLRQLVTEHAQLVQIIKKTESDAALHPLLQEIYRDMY
# [2] = tested on: PC3 cells (human prostate cancer-derived); test: SRB growth inhibition assay, PC3 cells; type: cell-based
# Method: (§1) The effect of perfluorinated compounds on the inhibition of tumour cell growth was assessed iii vitro using three human tumour-derived cell lines. Cancer cell lines were tested using the sulphorhodamine B (SRB) assay (which measures cellular protein and is directly related to cell number), which is utilised by the […] to screen anti-cancer agents.
# (§2) HT-29 cells (human colon tumour-derived), MCF7 cells (human breast cancer-derived) and PC3 cells (human prostate cancer-derived) were harvested and diluted (to 5×10^4 cells per ml, 1×10^5 cells per ml and 7.5×10^4 cells per ml respectively) in RPMI 1640 medium containing 5% FBS, 2 mM glutamine and. 50 μg/ml gentamicin. 100 μl of cell suspension per well was added to 96 well plates and allowed to attach overnight. Cells were exposed to test compounds dissolved in DMSO in 100 μl of medium to give final drug concentrations of 0, 0.3, 1, 3, 10, 30, 100, 300, 1000 and 3000 μM (and DMSO at 0.25%). (n=6 for each drug concentration). After 48 hours, cells were fixed in 10% trichloroacetic acid (TCA) at 4° C. for 1-2 hours then washed using water and subsequently air-dried. 100 μl SRB solution (0.4%) in 1% Acetic Acid was added to each well, and plates were incubated at room temperature for 10 minutes. Unbound dye was removed by washing with 1% acetic acid. Plates were air-dried and bound stain was solubilised in 10 mM Tris base and the absorbance read at 520 nm.
# PPAR delta = molecular target: T2, PPAR delta (Homo sapiens, UniProt Q03181); test: PPAR delta transactivation assay in COS-1 cells; type: cell-based; set-up: Fold activation of PPAR delta: dose or concentration left out as unconfirmed; conditions: for Inhibition of activation of PPAR delta (by a factor of): transactivation assay; for Fold activation of PPAR delta: mean±SD n=3
# T2 construct: 25 ng of vector DNA carrying PPAR alpha, delta or gamma; expressed in transfected cells; host or cells: COS-1 (African green monkey kidney cells)
# T2 sequence (Q03181 1-441): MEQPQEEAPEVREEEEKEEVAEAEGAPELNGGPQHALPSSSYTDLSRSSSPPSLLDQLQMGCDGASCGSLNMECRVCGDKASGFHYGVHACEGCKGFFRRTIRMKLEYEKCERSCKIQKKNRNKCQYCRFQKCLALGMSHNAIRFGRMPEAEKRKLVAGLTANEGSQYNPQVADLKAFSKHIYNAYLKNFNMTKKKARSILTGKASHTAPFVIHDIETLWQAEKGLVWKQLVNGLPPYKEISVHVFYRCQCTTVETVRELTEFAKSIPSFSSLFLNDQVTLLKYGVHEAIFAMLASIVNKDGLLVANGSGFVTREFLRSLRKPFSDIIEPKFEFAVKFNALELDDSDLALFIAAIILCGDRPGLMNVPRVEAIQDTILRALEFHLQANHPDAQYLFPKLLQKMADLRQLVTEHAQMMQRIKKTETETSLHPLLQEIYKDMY
# [3] = 7-day oral gavage study, metabolic parameters, body weight and food consumption in CR SD rats; type: in vivo, rat; conditions: for Weight loss: 7 days; for Cholesterol (plasma) / Glucose (plasma) / Insulin (plasma) / Triglycerides (plasma): n=5; for Plasma glucose, % of control values: dose not stated
# Method: Two groups (n=5) of CR SD rats (approximately 300 g) were treated with 2 dose levels of perfluorinated compounds (15 and 25 mg/kg/day body weight). Animals were administered test substances, dissolved in corn oil, by oral gavage, daily for 7 days. One group of 20 CR SD rays was also treated with vehicle (corn oil) alone. Body weight and food consumption were monitored daily.
# Twenty-four hours after the last dose the animals were killed by an increasing concentration of carbon dioxide. Blood was collected by cardiac puncture and plasma was prepared and stored at −70° C. until analysed.
# Plasma was analysed for triglycerides, cholesterol, and glucose, using kits purchased from Sigma. Concentrations of plasma insulin were determined using a commercially available enzyme-immunoassay-based kit from Amersham Biosciences. All assays were carried out as specified by the manufacturer.
# [4] = tested on: MCF7 cells (human breast cancer-derived); test: SRB growth inhibition assay, MCF7 cells; type: cell-based; conditions: 48 hours exposure
# Method: as §1, §2
# [5] = tested on: HT-29 cells (human colon tumour-derived); test: SRB growth inhibition assay, HT-29 cells; type: cell-based; conditions: 48 hours exposure
# Method: as §1, §2
# [6] = tested on: three human tumour-derived cell lines (HT-29, MCF7, PC3); test: SRB growth inhibition, summary over the three human tumour cell lines; type: cell-based; conditions: Homo sapiens; over HT-29, MCF7 and PC3
# Method: as §1, §2
# [7] = molecular target: T3, human PPAR-gamma ligand binding domain (Homo sapiens, UniProt P37231); test: PPAR gamma ligand binding (displacement of cis-parinaric acid)
# T3 sequence (P37231 202-505): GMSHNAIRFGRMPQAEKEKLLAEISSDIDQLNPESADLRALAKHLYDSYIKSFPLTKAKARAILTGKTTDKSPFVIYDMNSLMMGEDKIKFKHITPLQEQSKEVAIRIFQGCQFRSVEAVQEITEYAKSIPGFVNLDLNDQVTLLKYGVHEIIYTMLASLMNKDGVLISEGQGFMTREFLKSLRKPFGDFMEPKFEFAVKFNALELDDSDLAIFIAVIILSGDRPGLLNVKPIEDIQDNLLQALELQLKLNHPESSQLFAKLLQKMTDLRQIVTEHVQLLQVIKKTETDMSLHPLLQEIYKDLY
# [8] = Plasma levels of PFOA after 11 days oral dosing in SD rats (LC/MS/MS); type: in vivo, rat; conditions: 25 mg/kg oral daily for 11 days, 24 hours after final administration
# Method: The study consisted of one control group of 8 male CD Sprague Dawley rats (8-10-weeks old; obtained from Harlan, UK) and 4 test groups that contained 4 rats. Animals received powdered RM1 diet ad libitum for the duration of the study. […] All chemicals were dissolved in Mazola corn oil (at 2.5 mg/ml) and test compounds were administered at 10 ml/kg bodyweight. Control animal received Mazola corn oil only. All animals were sacrificed after 11 days. Animals were killed by exposure to rising concentrations of CO2, and blood was harvested into lithium/heparin tubes for plasma.
# Rat plasma samples were denatured by adding acetonitrile, and the amount of perfluorooctanoic acid (PFOA) present was determined by LC/MS/MS.
# [9] = 15 mg/kg/day oral gavage 7 days
# [10] = 25 mg/kg/day oral gavage 7 days
# [11] = 15 and 25 mg/kg/day, versus control
# [12] = Homo sapiens, PC-3, 48 hours exposure
Structure (SMILES),Kd [1],Inhibition of activation of PPAR delta (by a factor of) (PPAR delta),"Plasma insulin, % of control values ([3]; 15 mg/kg)",Weight loss ([3]; 15 mg/kg),"Cholesterol (plasma) [3, 9]","Glucose (plasma) [3, 9]","Insulin (plasma) [3, 9]","Triglycerides (plasma) [3, 9]","Plasma cholesterol, % of control values ([3]; 25 mg/kg)","Plasma insulin, % of control values ([3]; 25 mg/kg)","Plasma triglycerides, % of control values ([3]; 25 mg/kg)","Cholesterol (plasma) [3, 10]","Glucose (plasma) [3, 10]","Insulin (plasma) [3, 10]","Triglycerides (plasma) [3, 10]","Food consumption [3, 11]","Plasma glucose, % of control values [3]","IC50 [2, 12]",IC50 [6],Fold activation of PPAR delta (PPAR delta),other results
"O=C(O)C(F)(F)C(F)(F)C(F)(F)C(F)(F)C(F)(F)C(F)(F)C(F)(F)F [PFOA, Perfluorooctanoic acid]",6 µM,4,2.98%,9.4%,1.01 ± 0.086 mmol/L,10.30 ± 1.23 mmol/L,5.51 ± 8.88 ng/mL,0.37 ± 0.04 mmol/L,49.2%,30.74%,16.8%,0.98 ± 0.35 mmol/L,10.01 ± 3.90 mmol/L,56.76 ± 46.5 ng/mL,0.3 ± 0.13 mmol/L,"dose-related, decreases in food consumption",60%,–,–,–,"IC50 ([2]; 48 hours exposure): 215 µM; Bodyweight lost ([3]; 25 mg/kg, after day 6, terminated early): 11.7%; IC50 [4]: 244 µM; IC50 [5]: 398 µM"
"FC(F)(F)C(F)(F)C(F)(F)C(F)(F)C(F)(F)C(F)(F)C(F)(F)C(F)(F)F [PFO, Perfluorooctane]",–,–,–,–,1.99 ± 0.46 mmol/L,18.41 ± 1.41 mmol/L,99.58 ± 126.1 ng/mL,1.03 ± 0.35 mmol/L,–,33.5%,–,1.70 ± 0.11 mmol/L,17.13 ± 2.37 mmol/L,61.81 ± 45.81 ng/mL,2.09 ± 2.33 mmol/L,–,–,–,–,–,Plasma glucose raised by ([3]; 25 mg/kg): 3%
"O=C(O)C(F)(F)C(F)(F)C(F)(F)C(F)(F)C(F)(F)C(F)(F)C(=O)O [PFSA, Perfluorosuberic acid (C8)]",44 µM,1.6,28.7%,–,1.76 ± 0.15 mmol/L,16.41 ± 2.09 mmol/L,52.96 ± 26.55 ng/mL,0.95 ± 0.42 mmol/L,–,–,–,1.92 ± 0.36 mmol/L,15.9 ± 1.43 mmol/L,109 ± 103.2 ng/mL,1.22 ± 0.56 mmol/L,–,–,> 3000 µM,~3000 µM,0.62 ± 0.31 fold,"Reduction in binding affinity for PPAR alpha compared to PFOA [1]: 7 fold; Kd [7]: 13 µM; Reduction in binding affinity for PPAR gamma compared to PFOA [7]: ~40 fold; IC50 ([4]; Homo sapiens, MCF7, 48 h): > 3000 µM; IC50 ([5]; Homo sapiens, HT-29, 48 h): > 3000 µM"
"N.O=C(O)C(F)(F)C(F)(F)C(F)(F)C(F)(F)C(F)(F)C(F)(F)C(F)(F)F [APFO, Ammonium perfluorooctanoate]",8 µM,–,13.5%,1%,1.00 ± 0.36 mmol/L,13.12 ± 0.74 mmol/L,25.02 ± 20.27 ng/mL,0.25 ± 0.07 mmol/L,56.2%,8.3%,19.1%,–,11.99 ± 1.87 mmol/L,15.29 ± 9.72 ng/mL,0.34 ± 0.09 mmol/L,"dose-related, decreases in food consumption",72.6%,215 µM,200 to 600 µM,–,"Food consumption ([3]; 15 mg/kg): did not decrease further after day 6; Weight loss ([3]; 25 mg/kg (higher dose)): 11%; Bodyweight change ([3]; 15 and 25 mg/kg/day, continued till end of treatment): lost bodyweight after day 3; IC50 ([4]; Homo sapiens, MCF7, 48 h): 211 µM; IC50 ([5]; Homo sapiens, HT-29, 48 h): 293 µM"
"CCOC(=O)C(F)(F)C(F)(F)C(F)(F)C(F)(F)C(F)(F)C(F)(F)C(F)(F)F [EPOA, Ethylperfluorooctanoate]",–,–,–,–,–,–,–,–,–,–,–,–,–,–,–,–,–,–,–,–,Plasma concentration of PFOA (free acid) [8]: equimolar concentrations of PFOA
"CCCCC[C@H](O)/C=C/[C@@H]1[C@H]2C/C(=C/CCCC(=O)O)C[C@H]2C[C@H]1O [carbaprostacyclin, reference compound]",–,–,–,–,–,–,–,–,–,–,–,–,–,–,–,–,–,–,–,2.17 ± 0.42 fold,–
